Data reported in patent US20170029366A1, “INHIBITORS OF HISTONE LYSINE SPECIFIC DEMETHYLASE (LSD1) AND HISTONE DEACETYLASES (HDACS)” (THE JOHNS HOPKINS UNIVERSITY, priority 2014, published 2017).
Values joined by “and” are separate entries in the source; they are usually repeats but may differ in a detail not shown here. Equal values may be shown once.

Key:
[1] = target: T1, MAO-A (Homo sapiens, UniProt P21397); assay: MAO-A activity and inhibition assay (peroxidase-coupled, tyramine); format: biochemical
T1 construct: purchased Sigma M 7316
T1 sequence (P21397 1-527): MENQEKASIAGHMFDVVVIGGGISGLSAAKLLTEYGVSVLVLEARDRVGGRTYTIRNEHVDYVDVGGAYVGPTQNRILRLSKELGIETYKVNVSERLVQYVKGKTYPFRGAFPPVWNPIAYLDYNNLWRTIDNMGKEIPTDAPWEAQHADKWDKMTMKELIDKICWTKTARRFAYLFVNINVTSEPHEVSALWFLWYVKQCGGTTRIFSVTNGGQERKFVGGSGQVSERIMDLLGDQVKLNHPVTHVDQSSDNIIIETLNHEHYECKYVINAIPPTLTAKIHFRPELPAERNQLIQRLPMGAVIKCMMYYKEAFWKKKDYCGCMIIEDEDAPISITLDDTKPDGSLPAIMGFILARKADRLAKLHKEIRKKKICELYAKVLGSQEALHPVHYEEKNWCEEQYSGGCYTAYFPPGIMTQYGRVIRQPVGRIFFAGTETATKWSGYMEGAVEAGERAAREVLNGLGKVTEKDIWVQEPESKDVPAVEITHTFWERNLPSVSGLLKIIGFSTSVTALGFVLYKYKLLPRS
Procedure: (§1) MAO-A/B activity was measured spectrophotometrically using a peroxidase-coupled assay as previously described.
(§2) Each experiment was repeated at least two independent times and repeat measured values were typically within 20% of each other.

[2] = target: T2, MAO-B (Homo sapiens, UniProt P27338); assay: MAO-B activity and inhibition assay (peroxidase-coupled, tyramine); format: biochemical
T2 construct: purchased Sigma M 7441
T2 sequence (P27338 1-520): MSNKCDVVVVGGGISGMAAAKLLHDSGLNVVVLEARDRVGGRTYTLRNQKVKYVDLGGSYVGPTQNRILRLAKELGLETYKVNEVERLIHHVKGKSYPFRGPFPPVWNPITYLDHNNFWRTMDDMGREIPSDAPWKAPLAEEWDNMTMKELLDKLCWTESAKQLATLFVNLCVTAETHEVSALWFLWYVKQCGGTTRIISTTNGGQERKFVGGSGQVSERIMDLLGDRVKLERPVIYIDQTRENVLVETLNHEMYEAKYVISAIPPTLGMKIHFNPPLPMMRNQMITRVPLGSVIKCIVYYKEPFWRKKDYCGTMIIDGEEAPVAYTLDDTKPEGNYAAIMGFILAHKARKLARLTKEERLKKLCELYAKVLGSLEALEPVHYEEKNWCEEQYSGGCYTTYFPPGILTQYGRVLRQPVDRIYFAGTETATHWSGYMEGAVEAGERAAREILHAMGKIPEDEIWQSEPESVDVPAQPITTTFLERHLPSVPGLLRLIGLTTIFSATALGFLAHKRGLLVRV
Procedure: as §1, §2

[3] = tested on: H3K4Me2 in LNCaP cells; assay: Western blot of histone H3 marks in LNCaP cells; format: cell-based
Source text: Histone extracts were isolated as described previously. […] Data are presented from one representative experiment.
H3K4Me was detected using a polyclonal rabbit antibody (abcam ab8895). H3K4Me2 was detected using a monoclonal rabbit antibody (abcam ab32356). H3K4Me3 was detected using a polyclonal rabbit antibody (abcam ab8580). […] H3K9Me2 was detected using a monoclonal mouse antibody (abcam ab1220). H3K36Me3 was detected using a polyclonal rabbit antibody (abcam ab9050). H3K9Ac was detected using a polyclonal rabbit antibody (abcam ab4441). Total H3 was detected using a polyclonal rabbit antibody (abcam ab1791). LSD1 was detected using a polyclonal rabbit antibody (abcam ab17721). Actin was detected using a monoclonal mouse antibody (Sigma A1978).

[4] = tested on: H3K4Me2 in H460 cells; assay: Western blot of H3K4Me2 in H460 cells; format: cell-based; conditions: 48 h, compared with LNCaP
[5] = tested on: H3K4Me2 in A549 cells; assay: Western blot of H3K4Me2 in A549 cells; format: cell-based; conditions: 48 h
[6] = tested on: H3K4Me2 in MB-231 cells; assay: Western blot of H3K4Me2 in MB-231 cells; format: cell-based; conditions: 48 h
[7] = tested on: H460 cells; assay: [3H] thymidine incorporation assay in H460 cells; format: cell-based; conditions: Homo sapiens, NCI-H460, 48 h, read-out: IC50 of cellular proliferation rate (3H-thymidine incorporation)
[8] = tested on: LNCaP cells; assay: [3H] thymidine incorporation assay in LNCaP cells; format: cell-based; conditions: Homo sapiens, 48 h, read-out: IC50 of cellular proliferation rate (3H-thymidine incorporation)
Procedure: The effects of bizine on cell proliferation using a ^3H-thymidine incorporation assay were examined as a measure of the rate of DNA synthesis.
6 hours prior to harvesting cells, 10 μL of 0.1 mCi/mL Thymidine [methyl-3H] (ARC ART0178) was added to each well. The cells were then harvested (PerkinElmer) and radioactivity was measured with a liquid scintillation counter (PerkinElmer MicroBeta).

[9] = tested on: Immature primary cortical neurons; assay: Oxidative toxicity (HCA) and neuron viability assay (MTT); format: cell-based, Sprague Dawley rats; conditions: 0.5 μM, 5 mM HCA, MTT
Procedure: The next day cells were rinsed and then placed in medium containing 5 mM HCA. […] The next day, cell viability was assessed by the MTT assay (Promega). […] The two-way ANOVA followed by the Bonferroni posttest was used to measure statistical significance. p<0.05 was considered to be statistically significant. Each bar represents four different rat cultures.

[10] = target: T3, GST-LSD1 (Homo sapiens, UniProt O60341)
[11] = target: T3, GST-LSD1; assay: MassSQUIRM LSD1 inhibition assay; format: biochemical; parameters: made in house; host or cells: E. coli; conditions: 50 μM inhibitor, 215 nM GST-LSD1, 30 min, 25° C.
Procedure: MassSQUIRM inhibition experiments were performed in triplicate as described previously. […] The demethylase reactions were run at 25° C. for 30 min and then analyzed as reported previously.

Cl.Cl.NNCCc1ccc(NC(=O)CCCc2ccccc2)cc1 [Compound 12d, N-[4-(2-Hydrazinylethyl)phenyl]-4-phenylbutanamide dihydrochloride]
k(inact) [1]: 0.30 ± 0.11 min⁻¹ | k(inact) [2]: 0.26 ± 0.14 min⁻¹ | time of compound exposure at which changes in H3K4Me2 could be detected ([3]; 10 μM): ≤ 6 h | EC50 ([3]; Homo sapiens, 48 h, Western blot, read-out: EC50 of increase in H3K4Me2 signal): ~2 µM | effects on H3K4Me2 levels (in words) [4]: comparable dose-response effects | concentration required for reproducible increases in H3K4Me2 [5]: 20 µM | concentration required for reproducible increases in H3K4Me2 [6]: 20 µM | IC50 [7]: 14 µM | IC50 [8]: 16 µM | survival of neurons after HCA-treatment [9]: significantly enhanced survival of neurons | k(inact) ([10]; GST-LSD1, peroxidase-coupled assay, dihydrochloride): 0.15 min⁻¹ and 0.15 ± 0.017 min⁻¹ | LSD1 inhibitory potency (in words) ([10]; structure-activity comment on Table 1): most potent LSD1 inhibitor | LSD1 inhibition in MassSQUIRM assay (in words) [11]: very substantial LSD1 inhibition
